Laboratory results as given in patent US11918667B2, “Zirconium-based cluster as an antiperspirant and deodorant active” (Colgate-Palmolive Company, priority 2017, dated 2024).

How the values were obtained:
[1] = pH of zirconium oxychloride / arginine solutions; format: physicochemical; conditions: 1% zirconium oxychloride with varied arginine, 10 g samples, incubated 1 day at 50° C., cooled to room temperature
Method: Samples were prepared according to Table 1. Water was added to zirconium oxychloride (ZrOCl2.8H2O, MW 322.25) in a glass jar to yield a clear solution containing 1% zirconium oxychloride. Under stirring, L-arginine was slowly added to prevent clumping of arginine as well as large fluctuations in localized pH values. The solutions were incubated for 1 day at 50° C. Then the solutions were cooled to room temperature. Solid gel was formed in samples with the molar ratio of arginine to zirconium oxychloride of 2-4.
A 100 g batch was prepared according to Table 2. 1% w/w zirconium oxychloride (ZrOCl2.8H2O, MW 322.25) and arginine were mixed in aqueous solution with the molar ratio of arginine to zirconium oxychloride of 1:1.
The zirconium oxychloride cluster was prepared as described in Example 1. The prepared zirconium oxychloride cluster was purified by gel permeability chromatograph (GPC). GPC column was prepared using Bio-Rad P2 gel with 5 μm particle size. Approximately 10 mL of prepared solution was filtered (0.45 μm) and loaded on the column using a HPLC pump at 0.2 mL/min. The mobile phase of the GPC chromatography was deionized water. Elution fractions were collected in intervals and monitored using SEC-RI. […] The pH of the GPC fraction (1160-1300 min) was 4.5. […] 10 g of this fraction was freeze dried to obtain purified powder for subsequent PXRD analysis.

[2] = cited from earlier work

[Cl-].[Cl-].[O]=[Zr+2] [Zr, zirconium oxychloride]
pH [1]: 1.39 | pH of solution ([2]; solution of zirconium oxychloride which is effective as an antiperspirant (background)): about 0.8 | pH value ([2]; zirconium oxychloride alone (general statement)): < 2
